# Laboratory results reported in ChEMBL document CHEMBL1201862, “PubChem BioAssay data set” (2004).
#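 Dose response: 5 concentrations. Exposure: 48 h. Format: 96-well plates. Endpoint: linear interpolation; highest concentration if not reached. GI50: concentration for 50% inhibition of growth.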 Calls of active or inactive are those of the source. Cut-off read from the data, not from the text of the source: active = GI50 up to about 1.1 µM and inactive = higher.
# Experiments:
# Experiment in all cases: NCI tumour cell line growth inhibition, 48 h
# [1] = system: SK-MEL-5
# [2] = system: SR
# [3] = system: Hs-578T
# [4] = system: IGROV-1
# [5] = system: BT-549
# [6] = system: K562
# [7] = system: MDA-N
# [8] = system: M14
# [9] = system: RPMI-8226
# [10] = system: EKVX
# [11] = system: NCI-H23
# [12] = system: ACHN
# [13] = system: MDA-MB-435
# [14] = system: SK-MEL-2
# [15] = system: PC-3
# [16] = system: U-251
# [17] = system: MDA-MB-231
# [18] = system: HT-29
# [19] = system: CCRF-CEM
Compound,GI50 [1],GI50 [2],GI50 [3],GI50 [4],GI50 [5],GI50 [6],GI50 [7],GI50 [8],GI50 [9],GI50 [10],GI50 [11],GI50 [12],GI50 [13],GI50 [14],GI50 [15],GI50 [16],GI50 [17],GI50 [18],GI50 [19]
O=[N+]([O-])c1ccc2c(c1)N=C1OC(c3c[nH]c4ccc(COc5ccccc5)cc34)C(O)=C1N2 (stereo not given),37.5 µM (inactive),7.71 µM (inactive),> 100 µM (inactive),> 100 µM (inactive),> 100 µM (inactive),3.73 µM (inactive),> 100 µM (inactive),> 100 µM (inactive),> 100 µM (inactive),> 100 µM (inactive),> 100 µM (inactive),> 100 µM (inactive),> 100 µM (inactive),> 100 µM (inactive),> 100 µM (inactive),> 100 µM (inactive),56.6 µM (inactive),> 100 µM (inactive),
O=C(COc1ccccc1)N(C(=O)N1CCN(c2ccccc2)CC1)S(=O)(=O)c1ccccc1,> 100 µM (inactive),21.7 µM (inactive),> 100 µM (inactive),,> 100 µM (inactive),33.8 µM (inactive),62.4 µM (inactive),> 100 µM (inactive),,> 100 µM (inactive),> 100 µM (inactive),> 100 µM (inactive),> 100 µM (inactive),> 100 µM (inactive),50.5 µM (inactive),30.8 µM (inactive),52 µM (inactive),43.5 µM (inactive),22.1 µM (inactive)
O=CN(CCN1CCCC1)C1CCc2cc(Cl)c(Cl)cc2C1 (stereo not given),27.2 µM (inactive),23.9 µM (inactive),13.6 µM (inactive),22.1 µM (inactive),14.1 µM (inactive),20.9 µM (inactive),10 µM (inactive),15.9 µM (inactive),20.6 µM (inactive),27.2 µM (inactive),17.4 µM (inactive),,15 µM (inactive),,11.4 µM (inactive),0.513 µM (active),11 µM (inactive),5.75 µM (inactive),22.5 µM (inactive)
O=C1/C(=C/c2ccccc2)CCCc2ccccc21,,14.4 µM (inactive),21.9 µM (inactive),19.6 µM (inactive),20 µM (inactive),19.2 µM (inactive),19 µM (inactive),20.1 µM (inactive),16.6 µM (inactive),19.5 µM (inactive),17.5 µM (inactive),20.8 µM (inactive),18.3 µM (inactive),16.2 µM (inactive),18.1 µM (inactive),15.7 µM (inactive),20.1 µM (inactive),17.7 µM (inactive),15.7 µM (inactive)
